Assay results from publication PMC9414913, “Tyrosinase Inhibitors Derived from Chemical Constituents of Dianella ensifolia” (Plants, 2022).

Molecular target: mushroom tyrosinase (Agaricus bisporus, UniProt C7FF04)
Assay: In vitro mushroom tyrosinase inhibition assay
Type: biochemical
Settings: for mushroom tyrosinase inhibitory effect, in words: compared with arbutin (positive control)
Procedure: The mushroom tyrosinase inhibitory assay has been described in detail previously. Briefly, various concentrations of test compounds (100 μL) and 2 mM L-tyrosine (80 μL, Sigma-Aldrich, St. Louis, MO, USA) were mixed in 96-well plates. 20 μL of mushroom tyrosinase (1000 U/mL, Sigma-Aldrich, USA) was added to initiate the assay. The absorbance of the mixture was measured at 490 nm using a microplate reader (μQuant™, BioTek Winooski, VT, USA).

Sequence of mushroom tyrosinase (G1K3P4 entry or part of it): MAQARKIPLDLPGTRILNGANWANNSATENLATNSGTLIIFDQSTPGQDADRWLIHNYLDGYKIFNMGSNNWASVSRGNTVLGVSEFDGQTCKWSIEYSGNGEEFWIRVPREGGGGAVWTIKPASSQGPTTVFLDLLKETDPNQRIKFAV
Sequence of mushroom tyrosinase (C7FF04 2-392): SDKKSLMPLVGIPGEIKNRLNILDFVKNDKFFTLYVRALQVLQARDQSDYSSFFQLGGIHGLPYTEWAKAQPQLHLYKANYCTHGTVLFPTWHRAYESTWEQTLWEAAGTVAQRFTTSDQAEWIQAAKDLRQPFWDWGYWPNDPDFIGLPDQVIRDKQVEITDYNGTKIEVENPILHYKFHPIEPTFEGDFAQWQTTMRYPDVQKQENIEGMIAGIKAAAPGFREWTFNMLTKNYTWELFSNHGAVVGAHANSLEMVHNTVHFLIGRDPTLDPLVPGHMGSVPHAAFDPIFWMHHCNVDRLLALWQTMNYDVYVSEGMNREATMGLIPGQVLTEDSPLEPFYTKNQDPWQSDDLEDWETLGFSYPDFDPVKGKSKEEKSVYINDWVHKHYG

mushroom tyrosinase inhibitory effect, in words	Compound	IC50 (substrate 2 mM L-tyrosine, absorbance at 490 nm, read-out: IC50 (mushroom tyrosinase inhibitory effect)) [µM]
moderate or weak activity	COc1cc2c(cc1OC)O[C@H](c1ccc(O)cc1)CC2 [Compound 1, (2S)-4’-hydroxy-6,7-dimethoxyflavan]	
moderate or weak activity	COc1ccc2c(c1)O[C@H](c1ccccc1O)CC2 [Compound 3, (2S)-2’-hydroxy-7-methoxyflavan]	
moderate or weak activity	COc1ccc2c(c1C)OC(C1(O)C=CC(=O)CC1)CC2 [Compound 4, (2S,1′S)-4-hydroxy-4-(7-methoxy-8-methylchroman-2-yl)-cyclohex-2-enone]	
moderate or weak activity	Oc1ccc([C@@H]2CCc3ccc(O)cc3O2)cc1 [Compound 8, (2S)-7,4’-dihydroxyflavan]	
moderate or weak activity	Cc1c(O)ccc2c1O[C@H](c1ccc(O)cc1)CC2 [Compound 10, (2S)-7,4’-dihydroxy-8-methylflavan]	
moderate or weak activity	COc1ccc2c(c1C)O[C@H](c1cc(O)c(OC)c(O)c1)CC2 [Compound 12, (2S)-3’,5’-dihydroxy-7,4’-dimethoxy-8-methylflavan]	
moderate or weak activity	COc1ccc([C@@H]2CCc3cc(OC)c(O)cc3O2)cc1O [Compound 13, (2S)-7,3′-dihydroxy-6,4’-dimethoxyflavan]	
moderate or weak activity	CC(=O)c1c(C)cc2c(c1O)C(=O)CCC2O (stereo not shown) [Compound 41, 7-acetyl-4,8-dihydroxy-6-methyl-1-tetralone]	

Compound	mushroom tyrosinase inhibitory effect, in words	IC50 (substrate 2 mM L-tyrosine, absorbance at 490 nm, read-out: IC50 (mushroom tyrosinase inhibitory effect)) [µM]
COc1ccc2c(c1C)O[C@H](c1ccc(O)c(O)c1)CC2 [Compound 2, (2S)-3’,4’-dihydroxy-7-methoxy-8-methylflavan]	more substantial inhibitory effect against mushroom tyrosinase than arbutin	
O=C1C[C@@H](c2ccc(O)cc2)Oc2cc(O)ccc21 [Compound 15, (2S)-liquiritigenin]	more substantial inhibitory effect against mushroom tyrosinase than arbutin	109 ± 6.2
O=c1cc(-c2ccc(O)c(O)c2)oc2cc(O)cc(O)c12 [Compound 20, luteolin]	more substantial inhibitory effect against mushroom tyrosinase than arbutin	
O=c1cc(-c2ccc(O)cc2)oc2cc(O)cc(O)c12 [Compound 21, apigenin]	more substantial inhibitory effect against mushroom tyrosinase than arbutin	
